Where a name gives a salt, the structure may show the parent alone. Read-outs that look alike come from different tables or passages of the source.
Tested on: HTT
Test: Splicing assay (RT-qPCR on cell lysates) monitoring HTT splice variants: AJ and CJ mRNA
Format: cell-based
Conditions: concentration having 50% response
Experimental: Example 69: Exemplary Splicing Assay for Monitoring Expression Levels of Splice Variants
To set up 10 uL RT-qPCR reactions, cell lysates were transferred to 384-well qPCR plates containing the master mix according to the table below. The plates were sealed, gently vortexed, and spun down before the run. The volumes were adjusted accordingly in some instances where the reaction was carried in 20 uL. The table below summarizes the components of the RT-qPCR reactions:
The RT-qPCR reaction was performed using a QuantStudio (ThermoFisher) under the following fast cycling conditions. All samples and standards were analyzed at least in duplicate. In some instances, bulk room temperature (RT) step of 5-10 minutes was completed for all plates before proceeding with qPCR. The table below summarizes the PCR cycle:
The data analysis was performed by first determining the ΔCt vs the housekeeper gene. This ΔCt was then normalized against the DMSO control (ΔΔCt) and converted to RQ (relative quantification) using the 2^(−ΔΔCt) equation. The RQ were then converted to a percentage response by arbitrarily setting an assay window of 3.5 ΔCt for HTT-CJ and an assay window of 9 ΔCt for HTT-AJ. […] The percentage response was then fitted to the 4 parametric logistic equation to evaluate the concentration dependence of compound treatment. The increase in AJ mRNA is reported as AC50 (compound concentration having 50% response in AJ increase) while the decrease in CJ mRNA levels is reported as IC50 (compound concentration having 50% response in CJ decrease).

[1] = Table 7, decrease in CJ mRNA, read-out: HTT CJ AC50
[2] = Table 7, increase in AJ mRNA, read-out: HTT AJ AC50
[3] = Table 8, decrease in CJ mRNA, read-out: HTT CJ AC50
[4] = Table 8, increase in AJ mRNA, read-out: HTT AJ AC50

Row | SMILES | AC50 [1] [µM] | AC50 [2] [µM] | AC50 [3] [µM] | AC50 [4] [µM]
1 | CN(c1ccc(-c2ccc(-c3cn[nH]c3)c3ncsc23)nn1)C1CC(C)(C)NC(C)(C)C1 [Compound 132, N-methyl-6-[4-(1H-pyrazol-4-yl)-1,3-benzothiazol-7-yl]-N-(2,2,6,6-tetramethylpiperidin-4-yl)pyridazin-3-amine] | < 0.5 | < 0.5 |  | 
2 | CN(c1ccc(-c2ccc(-c3cn[nH]c3)c3cn[nH]c23)nn1)C1CC(C)(C)NC(C)(C)C1 [Compound 137, N-methyl-6-[4-(1H-pyrazol-4-yl)-1H-indazol-7-yl]-N-(2,2,6,6-tetramethylpiperidin-4-yl)pyridazin-3-amine] | 0.5 to 5 | 0.5 to 5 |  | 
3 | CC1(C)CC(Oc2ccc(-c3ccc(-c4cn[nH]c4)c4cn[nH]c34)nn2)CC(C)(C)N1 [Compound 138, 4-(1H-pyrazol-4-yl)-7-[6-[(2,2,6,6-tetramethylpiperidin-4-yl)oxy]pyridazin-3-yl]-1H-indazole] | < 0.5 | 0.5 to 5 |  | 
4 | CN(c1ccc(-c2ccc(-c3c[nH]nn3)c3cn[nH]c23)nn1)[C@@H]1C[C@H]2CC[C@@H](C1)N2 [Compound 141] | < 0.5 | < 0.5 |  | 
5 | c1n[nH]cc1-c1ccc(-c2ccc(O[C@@H]3C[C@H]4CC[C@@H](C3)N4)nn2)c2[nH]ncc12 [Compound 142, 7-[6-[(1R,3S,5S)-8-azabicyclo[3.2.1]octan-3-yloxy]pyridazin-3-yl]-4-(1H-pyrazol-4-yl)-1H-indazole] | < 0.5 | 0.5 to 5 |  | 
6 | CN(c1ccc(-c2ccc(-c3cnn(C)c3)c3cn[nH]c23)nn1)[C@@H]1C[C@H]2CC[C@@H](C1)N2 [Compound 143] | < 0.5 | 0.5 to 5 |  | 
7 | CN(c1ccc(-c2ccc(-c3cn[nH]c3)c3cn[nH]c23)nn1)[C@H]1C[C@]2(C)CC[C@](C)(C1)N2 [Compound 146, N,1,5-trimethyl-N-[6-[4-(1H-pyrazol-4-yl)-1H-indazol-7-yl]pyridazin-3-yl]-8-azabicyclo[3.2.1]octan-3-amine] | < 0.5 | < 0.5 |  | 
8 | CN(c1cnc(-c2cc(F)c(-c3cn[nH]c3)c3cn[nH]c23)nn1)[C@@H]1C[C@H]2CC[C@@H](C1)N2 [Compound 149] | < 0.5 | < 0.5 |  | 
9 | CN(c1ccc(-c2ccc(-n3cccn3)c3cn[nH]c23)nn1)C1CC(C)(C)NC(C)(C)C1 [Compound 150, N-methyl-6-[4-(pyrazol-1-yl)-1H-indazol-7-yl]-N-(2,2,6,6-tetramethylpiperidin-4-yl)pyridazin-3-amine] | 0.5 to 5 | 0.5 to 5 |  | 
10 | C[C@H]1C[C@H](N(C)c2ccc(-c3ccc(-c4cn[nH]c4)c4cc[nH]c34)nn2)CCN1 [Compound 157] |  | > 5 |  | 
11 | C[C@H]1C[C@H](N(C)c2ccc(-c3ccc(-n4cccn4)c4cc[nH]c34)nn2)CCN1 [Compound 158] | > 5 | > 5 |  | 
12 | C[C@H]1C[C@@H](N(C)c2ccc(-c3ccc(-n4cccn4)c4cn[nH]c34)nn2)CCN1 [Compound 159] | > 5 | > 5 |  | 
13 | C[C@H]1C[C@@H](N(C)c2ccc(-c3ccc(-c4cn[nH]c4)c4cn[nH]c34)nn2)CCN1 [Compound 160] | > 5 | > 5 |  | 
14 | [2H]C([2H])([2H])N(c1ccc(-c2ccc(-c3cn[nH]c3)c3ncsc23)nn1)C1CC(C)(C)NC(C)(C)C1 [Compound 231, N-(2H3)methyl-6-[4-(1H-pyrazol-4-yl)-1,3-benzothiazol-7-yl]-N-(2,2,6,6-tetramethylpiperidin-4-yl)pyridazin-3-amine] |  |  | 0.1 to 1 | 0.1 to 1
15 | COc1cc(-c2ccc(-c3ccc(N(C)C4CC(C)(C)NC(C)(C)C4)nn3)c3ncsc23)cnn1 [Compound 233] |  |  | 0.1 to 1 | 0.1 to 1
16 | CN(c1ccc(-c2ccc(-c3cnnc(O)c3)c3scnc23)nn1)C1CC(C)(C)NC(C)(C)C1 [Compound 234] |  |  | > 10 | > 10
17 | CN1C[C@@H]2[C@H](C1)[C@H]2N(C)c1ccc(-c2ccc(-c3cn[nH]c3)c3ncsc23)nn1 [Compound 235, (exo)-N,3-dimethyl-N-{6-[4-(1H-pyrazol-4-yl)-1,3-benzothiazol-7-yl]pyridazin-3-yl}-3-azabicyclo[3.1.0]hexan-6-amine hydrochloride] |  |  | > 10 | > 10
18 | c1n[nH]cc1-c1ccc(-c2ccc(NC3CNC3)nn2)c2[nH]ncc12 [Compound 237] |  |  | > 10 | > 10
19 | c1n[nH]cc1-c1ccc(-c2ccc(N3CCC4(CC3)CNC4)nn2)c2[nH]ncc12 [Compound 238] |  |  | > 10 | > 10
20 | c1n[nH]cc1-c1ccc(-c2ccc(N3CCC4(CCNCC4)C3)nn2)c2[nH]ncc12 [Compound 239] |  |  | > 10 | > 10
21 | c1n[nH]cc1-c1ccc(-c2ccc(N3CCC4(CCNC4)CC3)nn2)c2[nH]ncc12 [Compound 240] |  |  | > 10 | > 10
22 | c1n[nH]cc1-c1ccc(-c2ccc(N3CCNCC3)nn2)c2[nH]ncc12 [Compound 241] |  |  | > 10 | 1 to 10

Row | SMILES | AC50 [1] [µM] | AC50 [2] [µM] | AC50 [3] [µM] | AC50 [4] [µM]
23 | CN(c1ccc(-c2ccc(-c3cnn(C)c3)c3cn[nH]c23)nn1)C1CCNCC1 [Compound 242, N-methyl-6-[4-(1-methylpyrazol-4-yl)-1H-indazol-7-yl]-N-(piperidin-4-yl)pyridazin-3-amine;trifluoroacetic acid] |  |  | > 10 | > 10
24 | CN(c1ccc(-c2ccc(-c3cnn(C)c3)c3cn[nH]c23)nn1)C1CC(C)(C)NC(C)(C)C1 [Compound 243, N-methyl-6-[4-(1-methylpyrazol-4-yl)-1H-indazol-7-yl]-N-(2,2,6,6-tetramethylpiperidin-4-yl)pyridazin-3-amine; trifluoroacetic acid] |  |  | 1 to 10 | 1 to 10
25 | c1n[nH]cc1-c1ccc(-c2ccc(N3CCCC4(CNC4)C3)nn2)c2[nH]ncc12 [Compound 251] |  |  | > 10 | > 10
26 | c1n[nH]cc1-c1ccc(-c2ccc(N3CCC4(CCCNC4)C3)nn2)c2[nH]ncc12 (stereo not shown) [Compound 252] |  |  | > 10 | > 10
27 | c1n[nH]cc1-c1ccc(-c2ccc(N3CCCC4(CCNC4)C3)nn2)c2[nH]ncc12 (stereo not shown) [Compound 253] |  |  | > 10 | > 10
28 | c1n[nH]cc1-c1ccc(-c2ccc(N3C[C@H]4CNC[C@H]4C3)nn2)c2[nH]ncc12 [Compound 254] |  |  | > 10 | > 10
29 | CN1C[C@@H]2CN(c3ccc(-c4ccc(-c5cn[nH]c5)c5cn[nH]c45)nn3)C[C@@H]2C1 [Compound 255] |  |  | > 10 | > 10
30 | c1n[nH]cc1-c1ccc(-c2ccc(NC3CCNCC3)nn2)c2[nH]ncc12 [Compound 263, N-(piperidin-4-yl)-6-[4-(1H-pyrazol-4-yl)-1H-indazol-7-yl]pyridazin-3-amine hydrogen chloride] |  |  | > 10 | > 10
31 | CN(c1ccc(-c2ccc(-n3cccn3)c3cn[nH]c23)nn1)C1CCNCC1 [Compound 264] |  |  | > 10 | > 10
32 | c1nc2c(-c3cn[nH]c3)ccc(-c3ccc(N4CCC5(CCN5)C4)nn3)c2s1 (stereo not shown) [Compound 265, 7-(6-{1,6-diazaspiro[3.4]octan-6-yl}pyridazin-3-yl)-4-(1H-pyrazol-4-yl)-1,3-benzothiazole] |  |  | > 10 | > 10
33 | c1nc2c(-c3cn[nH]c3)ccc(-c3ccc(N4CCC45CCNCC5)nn3)c2s1 [Compound 266] |  |  | 1 to 10 | > 10
34 | [2H]C([2H])([2H])N(c1ccc(-c2ccc(-c3cn[nH]c3)c3cn[nH]c23)nn1)C1CCNCC1 [Compound 267] |  |  | > 10 | > 10
35 | CN(c1ccc(-c2ccc(-c3cn[nH]c3)c3cn[nH]c23)nn1)C1CCNCC1 [Compound 273] |  |  | > 10 | > 10
36 | CCN(c1ccc(-c2ccc(-c3cn[nH]c3)c3cn[nH]c23)nn1)C1CCNCC1 [Compound 274] |  |  | > 10 | > 10
37 | CC1(C)CC(Nc2ccc(-c3ccc(-c4cn[nH]c4)c4cn[nH]c34)nn2)CC(C)(C)N1 [Compound 275] |  |  | 0.1 to 1 | 1 to 10
38 | c1nc2c(-c3cn[nH]c3)ccc(-c3ccc(N4CCC45CCCNC5)nn3)c2s1 (stereo not shown) [Compound 276] |  |  | 1 to 10 | 1 to 10
39 | c1nc2c(-c3cn[nH]c3)ccc(-c3ccc(N4CCC45CCNC5)nn3)c2s1 (stereo not shown) [Compound 277] |  |  | > 10 | > 10
40 | c1cc(-c2ccc(N3CCCN3)c3cn[nH]c23)nnc1N[C@@H]1C[C@H]2CC[C@@H](C1)N2 [Compound 278] |  |  | < 0.1 | 0.1 to 1
41 | CN(c1ccc(-c2ccc(-c3ccn(C)c(=O)c3)c3ncsc23)nn1)C1CC(C)(C)NC(C)(C)C1 [Compound 279] |  |  | 1 to 10 | 1 to 10
42 | COc1cc(-c2ccc(-c3ccc(N(C)C4CC(C)(C)NC(C)(C)C4)nn3)c3scnc23)ccn1 [Compound 280] |  |  | 0.1 to 1 | 0.1 to 1
43 | CN(c1ccc(-c2ccc(-c3ccc(=O)n(C)c3)c3ncsc23)nn1)C1CC(C)(C)NC(C)(C)C1 [Compound 281] |  |  | > 10 | > 10
